Measurements as given in US20070161560A1, “Use of vanilloid 4 receptor and antagonists or agonists thereof for treating diseases associated with pain” (SmithKline Beecham plc, priority 2000, published 2007).

Legend:
Format in all cases: cell-based
wild type HEK293 cells = experiment: FLIPR cytoplasmic calcium (Fluo-3), wild type HEK293 cells; details: result in words
Procedure: (§1) The VR4 cDNA was inserted into the expression vector pcDNA3.1 V5-His (Invitrogen). Wildtype HEK293 cells, or HEK293 cells transfected with the human VR4:pcDNA3.1 V5-His construct, or mock transfected cells, or bovine chondrocytes, were seeded into 96-well microtitre plates at 25,000 cells/well and cultured overnight. The cells were then incubated with 4 microM Fluo-3 for 2 hrs at room temperature in the dark. Dye loaded cells were washed 4× with Tyrodes buffer: (NaCl, 145 mM; KCl, 2.5 mM; Hepes, 10 mM; Glucose, 10 mM; MgC12, 1.2 mM; CaCl2, 1.5 mM), which also contained 0.2% BSA but not probenecid. Agonists and antagonists were also prepared in Tyrodes buffer. Cells were preincubated for 30 mins with antagonist or buffer. Agonist addition and measurement of cytoplasmic calcium concentration was performed in the FLIPR (Smart et al., (2000) Br. J. Pharmacol. 129, 227-230).

[1] = tested on: HEK293 cells transfected with empty vector; experiment: FLIPR cytoplasmic calcium (Fluo-3), HEK293 cells transfected with empty vector; details: result in words
Procedure: as §1

human VR1 = human VR1 (Homo sapiens, UniProt Q8NER1); details: for activity at VR1: result in words; for pEC50 hVR1: increase of intracellular calcium, human VR1, mean ± s.e. mean, n = 3-5, IA = inactive
Sequence of human VR1 (Q8NER1 whole entry): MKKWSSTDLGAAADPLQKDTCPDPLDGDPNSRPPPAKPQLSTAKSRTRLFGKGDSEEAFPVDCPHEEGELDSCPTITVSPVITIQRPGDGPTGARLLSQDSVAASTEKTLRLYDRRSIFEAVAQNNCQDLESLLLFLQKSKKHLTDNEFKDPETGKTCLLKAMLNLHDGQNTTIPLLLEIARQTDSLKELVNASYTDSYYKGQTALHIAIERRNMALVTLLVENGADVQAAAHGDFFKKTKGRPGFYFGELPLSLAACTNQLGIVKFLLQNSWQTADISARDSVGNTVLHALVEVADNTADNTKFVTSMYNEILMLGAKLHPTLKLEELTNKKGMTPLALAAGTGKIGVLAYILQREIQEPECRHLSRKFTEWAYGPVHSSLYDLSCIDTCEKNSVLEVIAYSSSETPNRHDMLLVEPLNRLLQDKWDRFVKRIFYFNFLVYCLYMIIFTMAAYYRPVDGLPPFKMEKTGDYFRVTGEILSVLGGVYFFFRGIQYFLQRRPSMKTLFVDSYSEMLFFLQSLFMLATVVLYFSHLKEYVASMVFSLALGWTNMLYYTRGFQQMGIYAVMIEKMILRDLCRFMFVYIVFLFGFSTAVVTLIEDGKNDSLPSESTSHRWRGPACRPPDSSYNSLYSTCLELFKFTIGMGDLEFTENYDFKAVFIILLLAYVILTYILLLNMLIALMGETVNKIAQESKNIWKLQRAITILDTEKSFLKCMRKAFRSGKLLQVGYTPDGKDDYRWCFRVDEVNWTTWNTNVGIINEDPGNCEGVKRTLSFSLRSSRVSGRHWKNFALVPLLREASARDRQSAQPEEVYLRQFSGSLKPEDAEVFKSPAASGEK

human VR4 = target: T1, human VR4 (Homo sapiens, UniProt Q9HBA0); experiment: FLIPR cytoplasmic calcium (Fluo-3), HEK293 cells transfected with human VR4; details: for effect on intracellular calcium in HEK293-VR4 cells: result in words; for pEC50 hVR4: increase of intracellular calcium, mean ± s.e. mean, n = 3-5, IA = inactive; for effect on intracellular calcium in HEK293-VR4 cells / pEC50 hVR4: HEK293-VR4 cells
T1 construct: V5-His (vector-encoded); expressed in transfected cells; host or cells: HEK293
T1 sequence (Q9HBA0 whole entry): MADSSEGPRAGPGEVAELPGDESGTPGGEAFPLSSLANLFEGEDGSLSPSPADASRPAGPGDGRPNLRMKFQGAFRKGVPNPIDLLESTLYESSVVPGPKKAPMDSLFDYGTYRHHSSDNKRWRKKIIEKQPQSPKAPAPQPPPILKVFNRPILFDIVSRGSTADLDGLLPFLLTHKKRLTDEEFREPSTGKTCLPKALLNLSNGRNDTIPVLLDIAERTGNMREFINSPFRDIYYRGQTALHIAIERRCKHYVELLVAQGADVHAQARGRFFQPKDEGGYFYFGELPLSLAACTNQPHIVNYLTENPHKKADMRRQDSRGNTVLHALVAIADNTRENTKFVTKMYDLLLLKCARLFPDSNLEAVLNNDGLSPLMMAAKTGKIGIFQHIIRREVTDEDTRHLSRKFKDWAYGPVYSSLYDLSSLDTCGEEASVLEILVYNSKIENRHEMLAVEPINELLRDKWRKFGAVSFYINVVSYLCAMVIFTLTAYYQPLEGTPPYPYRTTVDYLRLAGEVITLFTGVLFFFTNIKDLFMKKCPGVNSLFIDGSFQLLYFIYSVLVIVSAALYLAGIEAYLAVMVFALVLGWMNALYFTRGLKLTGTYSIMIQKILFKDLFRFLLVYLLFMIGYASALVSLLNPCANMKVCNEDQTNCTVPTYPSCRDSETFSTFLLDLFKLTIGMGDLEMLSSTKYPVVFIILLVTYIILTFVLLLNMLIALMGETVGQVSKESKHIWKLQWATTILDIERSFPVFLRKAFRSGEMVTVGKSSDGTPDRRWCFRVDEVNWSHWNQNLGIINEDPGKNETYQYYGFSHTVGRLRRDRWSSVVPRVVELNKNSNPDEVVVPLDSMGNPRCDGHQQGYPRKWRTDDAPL
Procedure: as §1

[2] = tested on: VR4 endogenously expressed by chondrocytes; experiment: FLIPR cytoplasmic calcium (Fluo-3), bovine articular chondrocytes; details: channel blocker against the 4α-PDD response
Procedure: as §1
The response was dependent upon extracellular calcium ions and was blocked by the channel blocker ruthenium red.

| SMILES | effect on intracellular calcium in wild type HEK293 cells (wild type HEK293 cells) | effect on intracellular calcium in cells transfected with empty vector [1] | activity at VR1 (human VR1) | effect on intracellular calcium in HEK293-VR4 cells (human VR4) | selectivity VR4 over VR1 (human VR4; conclusion from pEC50 at hVR4 and hVR1) | pEC50 hVR4 (human VR4) | Emax at VR1 (human VR1; compared to capsaicin and RTX) | pEC50 hVR1 (human VR1) | block of the response to 4α-PDD in bovine articular chondrocytes [2] |
| --- | --- | --- | --- | --- | --- | --- | --- | --- | --- |
| CCCCCCCCCC(=O)O[C@@H]1[C@@H](C)[C@@]2(O)[C@@H](C=C(CO)C[C@@]3(O)C(=O)C(C)=C[C@@H]23)[C@@H]2C(C)(C)[C@]12OC(=O)CCCCCCCCC [4αPDD, 4α-phorbol-12,13-didecanoate] | without effect | without effect | inactive | increased intracellular calcium | VR4 selective agonist | 5.73 ± 0.06 | – | – | – |
| CCCCCCCCCCCCCC(=O)O[C@@H]1[C@@H](C)[C@@]2(O)[C@@H](C=C(CO)C[C@]3(O)C(=O)C(C)=C[C@@H]23)[C@@H]2C(C)(C)[C@]12OC(C)=O [PMA, phorbol 12-myristate 13-acetate] | without effect | without effect | partial agonist | increased intracellular calcium | – | 6.64 ± 0.06 | 0.46 | 7.86 ± 0.06 | – |
| C=C(C)[C@]12C[C@@H](C)[C@@]34O[C@](Cc5ccccc5)(O[C@@H]1[C@@H]3C=C(COC(=O)Cc1ccc(O)c(OC)c1)C[C@]1(O)C(=O)C(C)=C[C@@H]41)O2 [RTX] | – | – | – | – | – | – | – | 8.93 ± 0.20 | – |
| N.N.N.N.N.N.N.N.N.N.N.N.N.N.[Cl-].[Cl-].[Cl-].[Cl-].[Cl-].[Cl-].[O-2].[O-2].[Ru+3].[Ru+3].[Ru+4] [ruthenium red] | – | – | – | – | – | – | – | – | blocked |
